The values that follow come from patent publication US20080287443A1, “Treatment of Subgingival Pocket Infections” (priority 2005, published 2008).

In one series the test system is Porphyromonas gingivalis. Description: Level of key pathogen in sub-gingival samples. The format is in vivo. As to conditions: sub-gingival samples after 14 day rinse. The text has this:
(§1) The treatment routine was changed and they were asked to rinse with 0.2% w/v delmopinol once daily for 14 days (instead of chlorhexidine). They had been given a professional cleaning of their teeth prior to rinsing with Delmopinol but no systemic antibiotics were prescribed. Zithromax was used 6 months prior the current treatment. In addition, a reduction of some key pathogens were found.

A further series relates to Tannerella forsythia. The experiment in a line: Level of key pathogen in sub-gingival samples. Format: in vivo. As to conditions: sub-gingival samples after 14 day rinse.
Source text: as §1

For series [1] the following is noted: human, in vivo. An excerpt:
(§2) In this example delmopinol was used as a rinse to treat a patient who had been cared for over a 2-year period. They had been diagnosed with Morbus Crohn (Crohn's Disease) and with oral complications presenting as severe gingival lesions and swollen gingiva. They had been treated with antibiotics (Zithromax) in the past to control their oral infections and routinely used Chlorhexidine 0.12% rinse solution to control the recolonization of pathogens. Chlorhexidine is used routinely for the control of gingival infection/inflammations as an adjunct to other oral hygiene measures. There are, however side-effects with Chlorhexidine, i.e. staining of teeth, loss of taste and a burning sensation. The alcohol content in the Chlorhexidine solution may also cause some problems for patients. The potential burning sensation was in this case problematic and the patient was not compliant with Chlorhexidine rinsing. The treatment routine was changed and they were asked to rinse with 0.2% w/v delmopinol once daily for 14 days (instead of chlorhexidine). They had been given a professional cleaning of their teeth prior to rinsing with Delmopinol but no systemic antibiotics were prescribed. Zithromax was used 6 months prior the current treatment. The following clinical observations were made: 1.

In series [2] the test system is total bacterial load from sub-gingival samples. Description: Total bacterial load in sub-gingival samples from four sub-gingival pockets. Format: in vivo, human. The conditions noted are these: pockets 13, 23, 37 and 42; after 2 week rinse vs before; FIG. 1. An excerpt: FIG. 1 illustrates the sub-gingival reduction in bacterial load, in four selected sub-gingival pockets, after a 14 day course of delmopinol rinsing (once daily); and The treatment routine was changed and they were asked to rinse with 0.2% w/v delmopinol once daily for 14 days (instead of chlorhexidine). They had been given a professional cleaning of their teeth prior to rinsing with Delmopinol but no systemic antibiotics were prescribed. Zithromax was used 6 months prior the current treatment.

In the next series the test system is Treponema denticola. Description: Level of key pathogen in sub-gingival samples. Format: in vivo. As to conditions: sub-gingival samples after 14 day rinse; FIG. 2. The text has this: (§3) FIG. 2 illustrates the reduction of Treponema denticola and Aggregatibacter actinomycetemcomitans after the 14 day course of delmopinol treatment. The treatment routine was changed and they were asked to rinse with 0.2% w/v delmopinol once daily for 14 days (instead of chlorhexidine). They had been given a professional cleaning of their teeth prior to rinsing with Delmopinol but no systemic antibiotics were prescribed. Zithromax was used 6 months prior the current treatment. In addition, a reduction of some key pathogens were found.

The subject of series [3] is Aggregatibacter actinomycetemcomitans. The experiment in a line: Level of key pathogen in sub-gingival samples. Format: in vivo. As to conditions: sub-gingival samples after 14 day rinse; FIG. 2.
Source text: as §3

The next series relates to gingival inflammation. The experiment in a line: Clinical observation of gingival inflammation after delmopinol rinsing. The format is in vivo, human. As to conditions: one patient, 0.2% w/v rinse once daily for 14 days.
Source text: as §2, with “2.” for “1.”

“Also recorded” adds a separate entry of the source.

Regarding `CCCC(CCC)CCCC1COCCN1CCO` (stereo not shown) [delmopinol, 3-(4-propyl-heptyl)-4-(2-hydroxyethyl)morpholine], the “level of Porphyromonas gingivalis” value in the series on Porphyromonas gingivalis is listed as “not reduced”. The “level of Tannerella forsythia” value with Tannerella forsythia is “not reduced”. The “side-effects reported by the patient (staining, burning sensation)” value in series [1] is given as “no staining or burning sensation”. Also, the “total bacterial load from sub-gingival samples” value in series [2] is “significant reduction”. For the same molecule, the “level of Treponema denticola” value in the series on Treponema denticola is recorded as “significantly reduced”. The “level of Aggregatibacter actinomycetemcomitans” value in series [3] is “significantly reduced; also recorded: eliminated”. For the same molecule, in the series with gingival inflammation, the “extent of gingival inflammation (bleeding on probing, gingival swelling, ulcerations)” value is “clinically reduced”.
